Patent EP0855181A2 (priority 1997, dated 1998)
Where two headings read alike, the source gives them in different places.

Columns and labels:
Human neutrophils (PMN) = tested on: Human neutrophils (PMN)
Experimental: Human neutrophils (PMN) are isolated from EDTA-anticoagulated blood by Ficoll-density-centrifugation and by dextran sedimenation as described by Böyum, A. in Scand. J. Clin. Lab. Invest. 21(Suppl. 97):77-89, 1968.Variable concentrations of glycine (4.0 mM, 0.4 mM and 0.04 mM in a volume of 50 µl) and as a control 50 µl PBS are incubated with human neutrophils (2x10^7 cells/ml in a volume of 500 µl in Ca/Mg (1/0.5mM) and 0.25mM luminol) for 20 min at 37°C and stimulation is subsequently carried out with fMLP (N-formyl-methionyl-leucyl-phenylalanine, 10^-5M), NaF (20mM) or PMA (10 ng), each in a volume of 50µl, for 30 min at 37°C. fMLP is a receptor-mediated stimulus, NaF is a G-protein-mediated activator of cells and PMA activates the protein kinase C. As a control neutrophils are incubated with the variable glycine concentrations without subsequent stimulation. Respiratory burst is measured by chemiluminescence response of oxygen radicals essentially as described in Immunology, 1992, 76, 86-94.

[1] = tested on: Peripheral mononuclear cells (PMNs)
[2] = tested on: superantigen primed neutrophils
[3] = tested on: lymphocytes, monocytes, basophils (LMBs)
[4] = tested on: Peripheral mononuclear cells
Experimental: Peripheral mononuclear cells (as in example 2 but in a concentration of 10^6/ml) are pre-incubated with SEB at variable concentrations (50 µl of 1 ng/ml, 0,1 ng/ml and 0.01 ng/ml) in the presence of variable concentrations of glycine (as above) for 24h, 48h and 72h or pre-incubated with glycine and subsequently stimulated with different concentrations of SEB.

[5] = tested on: Peripheral mononuclear cells (PMNs); remark: listed apart in the source
[6] = tested on: Peripheral mononuclear cells; conditions: glycine 0.00004-40 mM, 14 days, interleukin-4 and anti-CD40
Experimental: To this end, peripheral mononuclear cells (as in example 1) were incubated with variable concentrations of glycine (0.00004mM, 0.0004mM, 0.004mM, 0.04mM, 0.4mM, 4mM, 40mM). The incubation time is carried out over 14 days. The cells were stimulated in the presence of glycine with interleukin-4 and anti-CD40 as B-cell activator. In the supernatant, the IgM, IgA, IgG and IgE synthesis was analysed.

Neutrophils (PMNs) = tested on: Neutrophils (PMNs)
Experimental: Neutrophils (PMNs, isolated as described in example 2, in a concentration of 2x10^7/ml in a volume of 500µl + 50 µl 1mM Ca/0.5mM Mg) are preincubated with glycine (0.0004mM, 0.004mM, 0.04mM, 0.4mM and 4mM in a volume of 50µl) for 20 or 30 minutes at 37°C. Subsequently they are treated with cytochalasin (50 µl, 10^-5M) and stimulated with 50 µl fMLP (10^-5M), NaF (20mM), or primed with 50µl GM-CSF (10ng) and subsequently stimulated with 50µl NaF (20mM), fMLP (10^-5M) or Ca-ionophore (5µM) and incubated for a further 20 minutes at 37°C. Leukotrienes are measured by HPLC as described in Immunology 67:401-407.

[7] = tested on: lymphocytes, monocytes, basophils (LMBs); remark: listed apart in the source
[8] = cells primed with GM-CSF, variable glycine, then NaF
[9] = glycine pre-incubation over 30 minutes

Question: What does the source list for `NCC(=O)O` [glycine]?
Answer: respiratory burst (Human neutrophils (PMN); glycine 0.04 mM, then fMLP): further modulation; oxygen metabolites (respiratory burst) (Human neutrophils (PMN); glycine 4.0, 0.4, 0.04 mM, 20 min at 37°C, no subsequent stimulation): no effect; respiratory burst (Human neutrophils (PMN); glycine pre-incubation, then NaF (20mM)): dose-dependent suppression and also an increase; respiratory burst (Human neutrophils (PMN); glycine pre-incubation, then PMA (10 ng)): No changes; TNF release ([1]; GM-CSF (10 ng) primed model, then SEB (10 ng)): suppression; TNF release ([1]; RSV as stimulus): modulation; TNF release ([1]; conditions of the interleukin-8 experiments): no significant changes; TNF ([1]; glycine 0.0004-0.4 mM pre-incubation, then SEB (10 ng)): dose-dependent increase; SEB-induced TNF release ([1]; glycine pre-incubation, then SEB): increase; TNF release ([1]; glycine pre-incubation, then SEB, in dependence on stimulus): suppression; TNF release ([1]; phospholipase C at variable concentrations as stimulus, 'also applies' refers to modulation): This also applies; 20-carboxy-LTB4 [2]: drop; LTC4 [2]: increase; cysteinyl leukotrienes [2]: increase; omega-LTB4 generation [2]: increase; release of 12-HETE [2]: increase; SEB-induced TNF-α release [3]: marked suppression; TNF-α [3]: increase; phospholipase C induced TNF-α release [3]: great suppression; suppression of the TNF-α release [3]: lower; staphylococcus enterotoxin B induced TNF-α release ([3]; LMBs incubated with interferon-γ 24 hours, then SEB): great suppression; interferon-γ release ([4]; 48 hours glycine pre-incubation, subsequent RSV stimulation): intense increase; interferon-γ release ([4]; 48 hours glycine pre-incubation, subsequent SEB stimulation (Fig. 2), refers to intense increase): similarly indicated; interferon-γ release ([4]; RSV used instead of SEB): dose-dependent increase; interferon-γ release ([4]; SEB with glycine, incubation of up to 48 hours): Marginal effects; interferon-γ release ([4]; glycine pre-incubation over 72 hours, SEB as activator): increase; release of interferon-γ ([4]; glycine pre-incubation, subsequent SEB stimulation): extremely potent release; interferon-γ concentration ([4]; very long glycine pre-incubation and subsequent stimulation): reduction; interleukin-12 release (LMBs; GM-CSF priming, glycine 2 hours, then SEB, eliminated with low glycine concentrations): marginal reduction; interleukin-12 release (LMBs; glycine incubation alone, low concentrations of glycine): stimulatory effect; IL-8 release [5]: significant increase; interleukin-8 release ([5]; cells pre-incubated with interferon-γ, then staphylococcus enterotoxin B): dose-dependent stimulation; interleukin-8 release ([5]; staphylococcus enterotoxin B stimulation): marginal increase; induced IgE synthesis [6]: no affect; other immunoglobulins (IgM, IgA, IgG synthesis) [6]: no changes; LTB4 generation (Neutrophils (PMNs); [8]): inhibition; LTC4 generation (Neutrophils (PMNs); [8]): inhibition; LTB4 generation (Neutrophils (PMNs); cells primed with GM-CSF, variable glycine, then calcium ionophore): marginal increase; LTB4 release (Neutrophils (PMNs); cells primed with GM-CSF, variable glycine, then fMLP): fluctuating; fMLP-induced LTE4 generation (Neutrophils (PMNs); glycine 4.0 mM): suppressing influence; LTB4 release (Neutrophils (PMNs); [9]): increase; LTC4 release (Neutrophils (PMNs); [9]): suppression; omega-LTB4 release (Neutrophils (PMNs); [9]): increase; leukotriene-E4 (Neutrophils (PMNs); neutrophils activated with calcium ionophore in the presence of glycine): very strong suppression; LTB4 generation (Neutrophils (PMNs); neutrophils in the presence of glycine, fMLP): suppression; interleukin-10 [7]: increase; release of interleukin-10 ([7]; glycine combined with staphylococcus enterotoxin B (Fig. 1)): significant release
